Test results: patent publication US12383562B2, “Application of metal complex” (Hunan Fangshengtai Medical Technology Co., Ltd., priority 2019, dated 2025)

Test system: mice with inflammatory pain
Experiment: Analgesic activity: CFA-induced inflammatory pain in mice, Von Frey test (paw withdrawal threshold)
Assay type: in vivo, Kunming mice
Settings: for response to the compound (pain threshold): CFA mice, intraperitoneal administration, approximately 0.03 mmol/kg (9, 10 or 11 mg/kg), seven mice; for change of paw withdrawal threshold after injection of drug: drug injected 24 hours after CFA, mice with inflammatory pain
Protocol: The analgesic assays of three vanadium compounds (bis(maltolato)oxovanadium, bis(ethylmaltolato)oxovanadium, and bis(kojato)oxovanadium) in mice are presented below. Some of the results are shown in FIG. 1, where S1 is bis(maltolato)oxovanadium, S2 is bis(ethylmaltolato)oxovanadium, S3 is bis(kojato)oxovanadium, and thepositive group (i.e., a positive control group) is aspirin group.
10 μl of complete Freund's adjuvant (CFA) was injected subcutaneously into the plantar surface of the left hindpaws of mice (♂ Kunming mice, 22-40 g) to produce inflammation. Von Frey tests were performed at 24 hours after injection or later to determine pain thresholds, i.e., under the guidance of a Dixon's Up-Down method, mice were induced with Von Frey fibers to have mechanical withdrawal of their hindpaws data were collected, and their 50% paw withdrawal thresholds (referred to as paw withdrawal threshold or PWT), namely the pain thresholds, were calculated. Afterwards, the mice were divided into a physiological saline group, a positive control group and a drug group, and injected intraperitoneally with 0.4 ml of physiological saline, 0.4 ml of aspirin (acetylsalicylic acid, or ASA) Tris-buffer solution at a concentration of 20 mg/ml and a mixed solution of a tested compound and 0.4 ml of cellulose solution (1%), respectively. Then, changes in the pain threshold were monitored with the Von Frey tests.

Row | Compound | response to the compound (pain threshold) | change of paw withdrawal threshold after injection of drug
1 | Cc1occc(=O)c1[O][V](=[O])[O]c1c(C)occc1=O [S1, bis(maltolato)oxovanadium(IV)] | all seven mice showed a response to the compound with a general increase in pain threshold | significant increase in the paw withdrawal threshold
2 | CCc1occc(=O)c1[O][V](=[O])[O]c1c(CC)occc1=O [S2, bis(ethylmaltolato)oxovanadium(IV)] | all seven mice showed a response to the compound with a general increase in pain threshold | significant increase in the paw withdrawal threshold
3 | [O]=[V-2]12([O]C3=COC(CO)=CC3=[O+]1)[O]C1=COC(CO)=CC1=[O+]2 [S3, bis(kojato)oxovanadium(IV)] | all seven mice showed a response to the compound with a general increase in pain threshold | significant increase in the paw withdrawal threshold
